Key:
[1] = target: T1, SMTA (transaminase from Shimia marina) (Shimia marina, UniProt A0A0P1EM06); type: binding
[2] = target: T1, SMTA (transaminase from Shimia marina); type: binding; remark: listed apart in the source

T1 sequence (A0A0P1EM06 1-462 limits assumed): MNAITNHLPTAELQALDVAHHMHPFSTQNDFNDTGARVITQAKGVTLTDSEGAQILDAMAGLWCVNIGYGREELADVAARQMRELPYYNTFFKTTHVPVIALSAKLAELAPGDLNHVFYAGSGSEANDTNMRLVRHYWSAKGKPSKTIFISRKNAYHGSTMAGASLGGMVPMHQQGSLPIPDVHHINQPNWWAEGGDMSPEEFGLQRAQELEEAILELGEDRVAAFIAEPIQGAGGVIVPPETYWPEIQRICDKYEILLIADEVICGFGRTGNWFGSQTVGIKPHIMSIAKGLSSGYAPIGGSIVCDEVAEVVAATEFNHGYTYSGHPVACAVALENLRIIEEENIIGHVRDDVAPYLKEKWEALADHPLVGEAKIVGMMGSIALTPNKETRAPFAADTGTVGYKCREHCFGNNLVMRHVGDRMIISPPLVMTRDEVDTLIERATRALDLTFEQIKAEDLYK

SMILES	X-ray crystal structure, 2.14 A [1]	cofactor release assay [2]
Cc1ncc(COP(=O)(O)O)c(C=O)c1O [PLP, pyridoxal-5′-phosphate]	The apparent electron density indicated a Schiff base between PLP and the catalytic lysine K291	–
Cc1ncc(COP(=O)(O)O)c(CN)c1O [PMP]	–	binding affinity of both PLP and PMP compared to that of wild-type SMTA
